Measured values reported in patent US20090197906A1, “REVERSION OF MALIGNANT PHENOTYPE WITH 9-HYDROXY ELLIPTICINE DERIVATIVES” (priority 2006, published 2009).

Key:
[1] = tested on: B16BL6; assay: MTT cell proliferation assay; type: cell-based; conditions: B16BL6, 3 days; read-out: Cytotoxic effect (MTT) IC50
Protocol: (§1) Growth studies were performed using the [3-(4,5 dimethylthiazol-2-yl)-2,5-diphenyl-2H-tetrazolium bromide] (Sigma) calorimetric assay.
(§2) About 1500 to 5000 cells, according to the cell line, were seeded in a 96-well culture plate 24 hours before adding increasing concentrations of BA016DD537 or BA016FZ539. The plate was incubated at 37° C. for 3 days. 10 μl MTT stock solution (5 mg/ml in phosphate buffer saline) was added to 90 μl of complete medium in each well, the incubation was continued for 3 h at 37° C. 100 μl of lysis buffer (10% sodium dodecyl sulfate, 1% HCl 1N; pH 4.7) was added to each well, and the plate was incubated overnight. The absorbance was determined using an Integrated EIA Management System (Labsystem) at a wavelength of 570 nm. The proliferation rates were calculated from the OD readings using the untreated cells as 100%.

[2] = tested on: SK-N-MC; assay: MTT cell proliferation assay; type: cell-based; conditions: 3 days, read-out: Cytotoxic effect (MTT) IC50
Protocol: as §1, §2

[3] = tested on: NCI-H187; assay: MTT cell proliferation assay; type: cell-based, human; conditions: NCI-H187, viability 72 h
Protocol: as §1, §2
(§3) The SRB protein stain assay was compared with the tetrazolium (MTT) colorimetric assay for in vitro chemosensitivity testing of various human small cell lung cancer cell lines.

[4] = tested on: NCI-H446; assay: MTT cell proliferation assay; type: cell-based, human; conditions: NCI-H446, viability 72 h, mean +/− SEM
Protocol: as §1, §2, §3

[5] = tested on: NCI-H510; assay: MTT cell proliferation assay; type: cell-based, human; conditions: NCI-H510, viability 72 h
Protocol: as §1, §2, §3

[6] = tested on: 1205 Lu; assay: cloning assay in methylcellulose (colony formation); type: cell-based, human; conditions: read-out: Inhibition of colony formation (methylcellulose) IC50
Protocol: (§4) Cells were embedded in complete culture medium supplemented with 0.8% methylcellulose (Methocel MC4000, Sigma), seeded in triplicate into 35-mm dishes (Greiner Bio-one Ref 627102, Dominique Dutscher) and incubated at 37° C. in a humidified 5% CO2 atmosphere. The number of cells seeded was 1000 cells per dish. After one to three weeks, according to cell lines, macroscopic clones were counted.

[7] = tested on: 451 Lu; assay: as above; type: cell-based, human; conditions: read-out: Inhibition of colony formation (methylcellulose) IC50
Protocol: as §4

[8] = tested on: A375; assay: as above; type: cell-based, human; conditions: read-out: Inhibition of colony formation (methylcellulose) IC50
Protocol: as §4

[9] = tested on: C9; assay: as above; type: cell-based, human; conditions: read-out: Inhibition of colony formation (methylcellulose) IC50
Protocol: as §4

[10] = tested on: HT144; assay: as above; type: cell-based, human; conditions: read-out: Inhibition of colony formation (methylcellulose) IC50
Protocol: as §4

[11] = tested on: Mia Paca-2; assay: as above; type: cell-based, human; conditions: read-out: Inhibition of colony formation (methylcellulose) IC50
Protocol: as §4

[12] = tested on: PANC-1; assay: as above; type: cell-based, human; conditions: read-out: Inhibition of colony formation (methylcellulose) IC50
Protocol: as §4

[13] = tested on: SKMEL28; assay: as above; type: cell-based, human; conditions: read-out: Inhibition of colony formation (methylcellulose) IC50
Protocol: as §4

[14] = tested on: B16F10 cell pulmonary metastases; assay: antimetastatic activity, B16F10 pulmonary metastases after i.v. injection; type: in vivo, mice
Protocol: In order to assess the anti-invasive property, the effect of 2-(beta piperidino-2-ethyl)-9-hydroxyellipticinium methanesulfonate on this process has been tested.
100 μl of a B16F10 cellular suspension (4.10^5 cells) were injected using i.v. route into the retro-orbital sinus of the mice. The 2-(beta piperidino-2-ethyl)-9-hydroxyellipticinium methanesulfonate (BA016FZ539) solution was administrated i.v to mice 24 hours and 72 hours after cell injection at a dose of 5 mg/Kg (first experiment) and 7.5 mg/kg (second experiment). In control group, mice were injected iv with physiological serum. Seven days later, the mice were sacrificed, the lungs were excised and metastatic nodules were counted under a dissecting microscope.

[15] = tested on: NIH 3T3 EF cells; assay: F-actin network rescue, FITC-phalloidin fluorescence microscopy; type: cell-based; conditions: non cytotoxic concentrations (100 nM and 200 nM), three days
Protocol: Malignant NIH 3T3 EF cells were seeded onto glass cover slips at a density of 2000 cells per cm^2. The next day, BA016DD537 was applied to NIH 3T3 EF cells at various non cytotoxic concentrations (100 nM and 200 nM). Three days later, cells were fixed for 10 min in PBS containing 3.7% formaldehyde at 4° C. before examination with a fluorescence microscope. The formaldehyde solution was neutralized with 50 mM NH4Cl. Extraction was carried out for 4 min with 0.4% Triton X-100 in PBS. Cells were incubated for 1 h with blocking buffer (3% bovine serum albumin in PBS) and then for 20 min with FITC-phalloidin (Sigma) at room temperature. Cover slips were mounted in Vectashieldk (Zymed) and observed through a fluorescence microscope (Nikon).

[16] = tested on: B16BL6 melanoma cells; assay: wound healing assay (cell motility); type: cell-based; conditions: non cytotoxic concentration
Protocol: (§5) Wound healing assay was performed to evaluate the effect of BA016DD537 on motility of malignant NIH 3T3 EF cells and melanoma cell lines B16F10 and B16BL6. All the cells were incubated at 37° C. in a humidified 5% CO2 atmosphere. About 100 000-200 000 cells were seeded in a 6-well culture plate and BA016DD537, at the different concentrations, was added 24 hours later. Cells were grown for 3 days to confluence about 90-95% and small scratch-wounds (about 200 μm-1 mm width) were made with a pipette tip. Cell debris were removed, then the cultures were incubated in complete medium for 10 h in the presence of the same concentration of BA016DD537. Then, the cells were fixed for 10 min in PBS containing 3.7% formaldehyde at 4° C.

[17] = tested on: NIH 3T3 EF cells; assay: wound healing assay (cell motility); type: cell-based; conditions: 50 nM
Protocol: as §5

[18] = tested on: NIH 3T3 EF; assay: MTT cell proliferation assay; type: cell-based; conditions: 3 days, read-out: Cytotoxic effect (MTT) IC50
Protocol: as §1, §2

Compound	IC50 [1]	IC50 [2]	IC50 [3]	IC50 [4]	IC50 [5]	IC50 [6]	IC50 [7]	IC50 [8]	IC50 [9]	IC50 [10]	IC50 [11]	IC50 [12]	IC50 [13]	Inhibition of pulmonary metastases development (% of control values) ([14]; Experiment 1, 5 mg/kg/inj. i.v. J1, J3, p = 0.0904)	Inhibition of pulmonary metastases development (% of control values) ([14]; Experiment 2, 7.5 mg/kg/inj. i.v. J1, J3, p = 0.3269)	rebuilding of actin network / morphology [15]	inhibition of cell motility [16]	inhibition of cell migration [17]	IC50 [18]
CS(=O)(=O)[O-].Cc1c2cc[n+](CCN3CCCCC3)cc2c(C)c2c1[nH]c1ccc(O)cc12 [BA016FZ539, 2-(betapiperidino-2-ethyl)-9-hydroxyellipticinium methanesulfonate]	212 nM	840 nM	7.9 µM	9.8 µM	14.8 µM	247 nM	2000 nM	97 nM	132 nM	125 nM	640 nM	4300 nM	515 nM	21% (p = 0.0904)	39.6% (p = 0.3269)	–	–	–	–
Cc1c2cc[n+](CCN3CCCCC3)cc2c(C)c2c1[nH]c1ccc(O)cc12.[Cl-] [BA016DD537, 2-(β-piperidinoethyl)-9-hydroxyellipticinium chloride]	–	–	–	–	–	–	–	–	–	–	–	–	–	–	–	able to rebuilt actin network in tumor cells at non cytotoxic concentration	inhibition of the B16BL6 cells motility	complete inhibition	400 nM
